Measurements as given in patent publication US10112931B2, “3-pyrimidin-4-yl-oxazolidin-2-ones as inhibitors of mutant IDH” (NOVARTIS AG, priority 2013, dated 2018).
Where a name gives a salt, the structure may show the parent alone.

What was measured:
Format in all cases: in vitro ADME
[1] = Metabolic stability in liver microsomes, Method I, rat
Protocol: The in vitro metabolic stability assay was performed in a 96-well glass plate with shaking incubation at 37° C. A 10 mM DMSO stock solution of the test compound was sequentially diluted 1:1000 to yield a final reaction concentration of 1 μM in 50 mM KPi. […] 30 μL of the 10 μM solution containing the test compound was added to 120 μL of microsomal protein for 150 μL enzyme-compound mixture. The reaction was initiated by adding 150 μL of cofactor solution (2 mM NADPH, 4 mM MgCl in 50 mM KPi) to the enzyme-compound mixture, and the final reaction concentrations are listed in the table below.
At 0, 5, 10 and 30 minute time points in the reaction, reaction aliquots (50 μL) were removed and the reactions were terminated by the addition of acetonitrile (150 μL) containing a mass spectrometry internal standard (1 μM glyburide). The samples were centrifuged and the supernatants analyzed by LC-MS/MS for quantization of remaining compound. […]
Mobile phase A consisted of purified water containing 0.01% formic acid. […] Compounds were detected using the Thermo QuikQuan software which collects intensity data for all fragments related to the molecular weight of the test compound. […]

[2] = Metabolic stability in liver microsomes, Method II, human
Protocol: Determination of Metabolic Stability in Liver Microsomes—Method II
The in vitro metabolic stability assay was performed in a 96-deep-well plate with incubation at 37° C. 10 mM DMSO stock solution of the test compound was diluted 1:20 in acetonitrile, followed by an additional 1:10 dilution in 100 mM potassium phosphate buffer (KPi) to yield a final reaction concentration of 1 μM. Immediately prior to the start of the experiment, respective animal or human liver microsomes (male Sprague-dawley rat, male CD-1 mouse, or pooled human liver microsomes) were diluted in 100 mM KPi to 1.25 mg/mL liver microsomal protein. 290 μL of cofactor solution (1.7 mM NADPH, 1.7 mM UDPGA, 3.4 mM MgCl in 100 mM KPi) was added to 200 μL of microsomal protein for a final volume of 490 μL. The reaction was initiated by adding 10 μL of the 50 μM test solution to 490 μL of microsomal protein for a final volume 500 μL enzyme-compound mixture.
At 0, 5, 15 and 30 minute time points in the reaction, reaction aliquots (75 μL) were removed and the reactions were terminated by the addition of 50:50 acetonitrile/methanol solution (75 μL) containing a mass spectrometry internal standard (0.5 μM glyburide). The samples were centrifuged at 4000 RPM for 10 minutes. Supernatants (15 μL aliquots) were transferred to a new plate where each well contains 90 μL of deionized water. The supernatants solution were analyzed by UPLC/MS/MS for quantitation of parent remaining compound under multiple reactions monitoring mode (MRM) in positive mode. The percentage of compound remaining, relative to 0 minutes, was used to estimate in vitro elimination-rate constant (k) which was used to calculate in vitro metabolic clearance rates.
Analysis of the samples was performed on an ultra-performance liquid chromatography-tandem mass spectrometry (UPLC/MS/MS) system consisting of an AB Sciex Qtrap 5500 mass spectrometer, AB Sciex Turbo V ion source, Waters Acquity Sample Organizer, Waters Acquity Column manager, Waters Acquity Sample manager, and a Waters Acquity Binary Solvent Manager. Chromatographic separation of analyte and internal standard was achieved using a reverse phase C-18 column (50×2.1 mm, 1.7 μm, Acquity UPLC BEH C-18) with the following UPLC mobile phases and elution gradient: […]
UPLC mobile phase A: 0.25% formic acid in 5% methanol; mobile phase B: 0.25% formic acid in […].
LC gradient and flow rate are listed below: […]
The injection volume was 5 μL. Compounds were detected using Analyst 1.5.1 software which collects intensity data for all fragments related to the molecular weight of the test compound. After collection of the raw data, the software identifies and integrates the peak of the strongest intensity.
Each microsomal elimination rate, k, was based on a 4-point elimination curve tested in duplicates. LC-MS/MS raw data for a reaction plate was returned as integrated analyte peak areas for the test compound and internal standard used in the quench solution for the reaction to enable use of analyte:internal standard peak area ratios (PARs) for all data comparisons. The reaction time point (e.g. 0, 5, 15 and 30 minutes) was plotted versus the natural logarithm of percent test compound remaining relative to 0 minutes (based on relative PAR). The slope of this clearance plot, k, was used to calculate the in vitro half-life.
[formula] The intrinsic clearance value, CLint (expressed as μL/min/mg microsomal protein) calculation is shown below:
[formula] […]

[3] = Metabolic stability in liver microsomes, Method II, mouse
Protocol: The in vitro metabolic stability assay was performed in a 96-deep-well plate with incubation at 37° C. 10 mM DMSO stock solution of the test compound was diluted 1:20 in acetonitrile, followed by an additional 1:10 dilution in 100 mM potassium phosphate buffer (KPi) to yield a final reaction concentration of 1 μM. […] 290 μL of cofactor solution (1.7 mM NADPH, 1.7 mM UDPGA, 3.4 mM MgCl in 100 mM KPi) was added to 200 μL of microsomal protein for a final volume of 490 μL. The reaction was initiated by adding 10 μL of the 50 μM test solution to 490 μL of microsomal protein for a final volume 500 μL enzyme-compound mixture.
UPLC mobile phase A: 0.25% formic acid in 5% methanol; mobile phase B: 0.25% formic acid in 95% water.
Each microsomal elimination rate, k, was based on a 4-point elimination curve tested in duplicates. LC-MS/MS raw data for a reaction plate was returned as integrated analyte peak areas for the test compound and internal standard used in the quench solution for the reaction to enable use of analyte:internal standard peak area ratios (PARs) for all data comparisons. […]
[formula] The intrinsic clearance value, CLint (expressed as μL/min/mg microsomal protein) calculation is shown below: […]

Row | Structure (SMILES) | Rat microsomal stability CLint [1] [µL/min/mg] | Human microsomal stability CLint [2] [µL/min/mg] | Mouse microsomal stability CLint [3] [µL/min/mg]
1 | C[C@H](Nc1nccc(N2C(=O)OCC2[C@H](C)F)n1)c1cn(-c2ccc(C(F)F)cc2)cn1 (stereo partly shown) [456 as TFA salt] | 44.66 | 16.79 | –
2 | C[C@H](Nc1nccc(N2C(=O)OC[C@@H]2[C@@H](C)N)n1)c1cnc(-c2ccc(Cl)cc2)s1 [Example 380, (S)-4-((R)-1-aminoethyl)-3-(2-(((S)-1-(2-(4-chlorophenyl)thiazol-5-yl)ethyl)amino)pyrimidin-4-yl)oxazolidin-2-one] | – | 31.15 | 51.00
3 | C[C@H](Nc1nccc(N2C(=O)OC[C@@H]2[C@H](C)F)n1)c1cn(-c2ccc(F)cc2)cn1 [Example 401, (R)-4-((S)-1-fluoroethyl)-3-(2-(((S)-1-(1-(4-fluorophenyl)-1H-imidazol-4-yl)ethyl)amino)pyrimidin-4-yl)oxazolidin-2-one] | – | <7.70 | 33.13
4 | C[C@H](Nc1nccc(N2C(=O)OC[C@@H]2CF)n1)c1cn(-c2ccc(Cl)cc2)cn1 [Example 404, (R)-3-(2-(((S)-1-(1-(4-chlorophenyl)-1H-imidazol-4-yl)ethyl)amino)pyrimidin-4-yl)-4-(fluoromethyl)oxazolidin-2-one] | – | <7.70 | 18.72
5 | C[C@H](Nc1nccc(N2C(=O)OC[C@@H]2[C@H](C)F)n1)c1ncc(-c2ccnc(C(F)(F)F)c2)cc1F [Example 463, (R)-3-(2-(((S)-1-(5-fluoro-2′-(trifluoromethyl)-[3,4′-bipyridin]-6-yl)ethyl)amino)pyrimidin-4-yl)-4-((S)-1-fluoroethyl)oxazolidin-2-one] | – | 28.27 | 35.45
